Source: patent publication US10227349B2, “Pyrazolo[1,5-a]pyrimidine compound” (Eisai R&D Management Co., Ltd., priority 2016, dated 2019)

Legend:
PAR2 = target: T1, PAR2 (Mus musculus, UniProt P55086); assay: Measurement of PAR2 agonist (SLIGRL-NH2)-induced salivation in mouse; type: in vivo; conditions: C57BL/6J male mice, 0.3 mg/mL solution 10 mL/kg orally, 60 min before SLIGRL-NH2 i.p., saliva collected 10 min
T1 construct: orally administered to C57BL/6J male mice (Charles River), 6-10 weeks of age; tissue Charles River; host or cells: Living C57BL/6J male mice (in vivo; saliva secretion)
T1 sequence (P55086 26-399): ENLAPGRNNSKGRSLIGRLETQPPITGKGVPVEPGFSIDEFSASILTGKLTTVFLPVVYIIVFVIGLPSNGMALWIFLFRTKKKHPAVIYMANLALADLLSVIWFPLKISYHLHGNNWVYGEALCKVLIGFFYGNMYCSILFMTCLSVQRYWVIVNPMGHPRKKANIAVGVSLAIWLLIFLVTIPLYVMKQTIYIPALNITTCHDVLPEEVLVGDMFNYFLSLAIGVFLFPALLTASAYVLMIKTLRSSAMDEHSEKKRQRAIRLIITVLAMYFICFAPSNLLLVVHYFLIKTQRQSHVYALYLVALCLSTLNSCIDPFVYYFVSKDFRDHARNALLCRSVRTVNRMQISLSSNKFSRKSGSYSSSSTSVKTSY

[1] = test system: DNFB-induced dermatitis in BALB/c male mice; assay: Mouse dermatitis model (DNFB-induced auricle swelling); type: in vivo; conditions: 0.3 mg/mL solution 10 mL/kg orally 8 hours after DNFB induction, auricle thickness on following day
Description: The test compound was added to a 0.5% carboxymethyl cellulose solution so as to have the final concentration of 0.3 mg/mL, thereby preparing an administration solution containing the test compound. Hapten used was 2,4-dinitrofluorobenzene (DNFB, Wako Pure Chemical Industries).
Twenty-five (25) μL of a solution of DNFB diluted to 0.4% with a mixed solvent of acetone and an olive oil in a volume ratio of 2:1 was applied twice to the shaved abdominal region of BALB/c male mice (Charles River), 6-10 weeks of age, over a period of 2 days to create the sensitization. Four days after the sensitization, on the first day, 20 μL of a solution of DNFB diluted to 0.2% with a mixed solvent of acetone and an olive oil in a volume ratio of 2:1 was applied to the right auricle of the mouse to induce dermatitis. Eight hours after the induction of dermatitis, the administration solution containing the test compound (10 mL/kg) was orally administered to the mouse. On the day following the induction of dermatitis, the right auricle thickness of the mouse was measured using a thickness gauge to evaluate the action of the test compound.
Note that Reference Example 1 in Table 5 is Compound (XIX).

C[C@@H](c1ccccc1)N(C)c1cc(-c2cc(F)c(F)c(F)c2)nc2cc(C(=O)N3CCC(CC(=O)O)CC3)nn12 [Reference Example 1, (S)-2-(1-(7-(methyl(1-phenylethyl)amino)-5-(3,4,5-trifluorophenyl)pyrazolo[1,5-a]pyrimidine-2-carbonyl)piperidin-4-yl)acetic acid, reference compound]
Inhibitory activity on the PAR2-dependent saliva secretion (%) (PAR2): 95.9% | Inhibitory activity on auricle swelling (%) [1]: 22.3%

CO[C@H]1CN(C(=O)c2cc3nc(-c4cc(F)c(Cl)c(F)c4)cc(N(C)c4c(C)cccc4F)n3n2)CC[C@H]1CC(=O)O [Example 10, 2-((3R,4S)-1-(5-(4-chloro-3,5-difluorophenyl)-7-((2-fluoro-6-methylphenyl)(methyl)amino)pyrazolo[1,5-a]pyrimidine-2-carbonyl)-3-methoxypiperidin-4-yl)acetic acid]
Inhibitory activity on the PAR2-dependent saliva secretion (%) (PAR2): 92.2% | Inhibitory activity on auricle swelling (%) [1]: 52.9%
